Results on five molecules are retold here after patent publication US20240425478A1, “CYCLOPENTYLPYRAZOLE CDK2 INHIBITORS” (Genentech, Inc., priority 2021, published 2024).

Structures are written as SMILES. Like-named read-outs stand apart in the source and are kept apart here. Some results are limits rather than exact numbers.

Experiment [1] concerns the target T1, Cyclin Dependent Kinase 1/Cyclin A2 (CDK1-cycA2) (Homo sapiens, UniProt P06493).
T1 construct: purchased ProQinase 0134-0054-1
Description: CDK1-cycA2 TR-FRET (Lance) enzyme assay. The format is biochemical. Conditions: Table O, enzymatic assay. The method, then:
(§1) Cyclin Dependent Kinase 1/Cyclin A2 (CDK1-cycA2), Cyclin Dependent Kinase 2/Cyclin E1 (CDK2-cycE1), Cyclin Dependent Kinase 4/Cyclin D3 (CDK4-cycD3) and Cyclin Dependent Kinase 6/Cyclin D3 (CDK6-cycD3) enzyme assays were carried out as described below.
(1) CDK1-cycA2 TR-FRET (Lance®)
(§2) An Echo acoustic dispenser is used to create dose responses of compound dissolved in DMSO into a 384-well microplate. A 5 μL volume of enzyme mix is added to the well, and pre-incubated with compound for 30 minutes. […] Buffer conditions are 50 mM HEPES, pH 7.5, 10 mM MgCl2, 2 mM TCEP, 0.05% BGG and 0.01% Brij 35. The reaction is quenched with 5 μL of EDTA in detection buffer (15 mM [EDTA final]). Finally, a 5 μL TR-FRET detection mix is added to the quenched reaction, which includes Europium labeled anti-phospho-4E-BP1. […] Signal is a ratio of the Acceptor and Donor fluorescence. Inhibition constants are calculated via the Morrison equation.
For orientation: In TR-FRET formats the signal depends on donor and acceptor labels being close together.

Experiment [2] deals with T2, Cyclin Dependent Kinase 2/Cyclin E1 (CDK2-cycE1) (Homo sapiens, UniProt P24941).
T2 construct: purchased ProQinase 0050-0055-1
The experiment can be described thus: CDK2-cycE1 TR-FRET (LANCE) enzyme assay.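 On improvement in potency against CDK2 (Ki) over Comparator C: fold lower CDK2 Ki than comparator c (Ki 0.032 µM).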 The class given is biochemical. The note with it: for Ki: enzymatic assay, read-out: CDK2 Ki; for FS CDK1/CDK2 / FS CDK4/CDK2: fold selectivity; for increased fold-selectivity CDK4/CDK2 over Comparator C: (+) sign after FS CDK4/CDK2. Here is the method: as §1
(ii) CDK2-cycE1 TR-FRET (LANCE®)
as §2, with “anti-phospho-MBP.” for “anti-phospho-4E-BP1.”, “equation. Enzyme source of CDK2-cycE1 is ProQinase, catalog #: 0050-0055-1.” for “equation.”

For experiment [3], the target named is T3, Cyclin Dependent Kinase 4/Cyclin D3 (CDK4-cycD3) (Homo sapiens, UniProt P11802).
T3 construct: purchased Carna Biosciences 04-105
The experiment can be described thus: CDK4-cycD3 TR-FRET (LANCE) enzyme assay. The format is biochemical. The note with it: Table O, enzymatic assay. The method, then:
as §1
(iii) CDK4-cycD3 TR-FRET (LANCE®)
as §2

The test system of experiment [4] is OVISE (JCRB1043, CCNE1-amplified). The experiment can be described thus: OVISE EdU incorporation cell proliferation assay (CDK2-dependent). The format is cell-based. Conditions: for IC50: cellular assay, read-out: CDK2 OVISE IC50; for FS SKOV-3/OVISE: fold selectivity; for increased fold-selectivity SKOV-3/OVISE over Comparator C: (+) sign after FS SKOV-3/OVISE; for improvement in CDK2 OVISE cell potency over Comparator C: in brackets after OVISE IC50, Comparator C 5.5 μM. Here is the method: (§3) (i) OVISE and SKOV-3 EdU Incorporation Cell Proliferation Assays
(§4) Ovarian cancer cell proliferation is measured by incorporation of EdU (5-ethynyl-2′-deoxyuridine) into newly synthesized DNA. CDK2-dependent proliferation is determined using OVISE (JCRB1043, CCNE1-amplified) while CDK4/6-dependent effect is determined with SKOV-3 (ATCC HTB-77) which is not CCNE1-amplified.
(§5) Cells are plated in 384-well plates in RPMI medium supplemented with 10% FBS. Compounds are added at desired concentrations with a final DMSO content of 0.5%, and cells incubated at 37° C./5% CO2 for 16 hours. EdU (Life Technologies) is added to a final concentration of 0.5 μM and incubation continued for 8 hours, followed by fixation with 4% paraformaldehyde. […] Images are acquired using Yokogawa CQ1 imaging cytometer with a 10×objective. […] The IC50 for inhibition of cell division is determined by fitting the fraction of EdU-positive cells as a function of compound dose using a 4-parameter logistic model.

Experiment [5] relates to SKOV-3 (ATCC HTB-77). Description: SKOV-3 EdU incorporation cell proliferation assay (CDK4/6-dependent). Conditions: Homo sapiens, cellular assay, read-out: CDK4/6 SKOV-3 IC50. The format is cell-based. Here is the method:
as §3, §4, §5

Setting [6] is: Table O, enzymatic CDK1 Ki over CDK2 Ki.
[7] abbreviates: Table O, enzymatic CDK4 Ki over CDK2 Ki.
Where [8] appears, read: Table O, cellular SKOV-3 IC50 over OVISE IC50.
Where [9] appears, read: Table Q, in brackets after CDK2 Ki, Comparator C 0.032 μM.

Usually Ki stands for the equilibrium dissociation constant of an inhibitor or competing ligand from its target.

T1 sequence (P06493 whole entry): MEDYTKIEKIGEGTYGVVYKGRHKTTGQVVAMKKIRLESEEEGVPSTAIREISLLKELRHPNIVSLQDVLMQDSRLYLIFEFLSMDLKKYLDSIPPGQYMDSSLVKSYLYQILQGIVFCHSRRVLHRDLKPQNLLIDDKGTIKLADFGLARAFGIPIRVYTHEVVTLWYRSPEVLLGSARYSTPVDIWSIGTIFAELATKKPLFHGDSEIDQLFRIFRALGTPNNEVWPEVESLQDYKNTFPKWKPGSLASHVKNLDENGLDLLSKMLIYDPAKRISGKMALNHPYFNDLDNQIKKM
T1 sequence (P20248 whole entry partner): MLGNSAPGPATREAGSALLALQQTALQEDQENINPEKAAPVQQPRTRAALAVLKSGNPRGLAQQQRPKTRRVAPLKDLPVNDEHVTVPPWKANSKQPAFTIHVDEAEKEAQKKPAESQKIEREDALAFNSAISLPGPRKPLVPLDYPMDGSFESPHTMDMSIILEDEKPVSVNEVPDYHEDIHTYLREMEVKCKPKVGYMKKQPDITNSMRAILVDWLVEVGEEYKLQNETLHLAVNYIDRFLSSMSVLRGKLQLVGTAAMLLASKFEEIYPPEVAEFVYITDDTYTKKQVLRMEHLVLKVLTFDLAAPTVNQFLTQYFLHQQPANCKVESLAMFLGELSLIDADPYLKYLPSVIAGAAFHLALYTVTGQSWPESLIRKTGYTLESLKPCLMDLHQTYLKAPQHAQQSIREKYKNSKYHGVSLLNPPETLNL
T3 sequence (P11802 whole entry): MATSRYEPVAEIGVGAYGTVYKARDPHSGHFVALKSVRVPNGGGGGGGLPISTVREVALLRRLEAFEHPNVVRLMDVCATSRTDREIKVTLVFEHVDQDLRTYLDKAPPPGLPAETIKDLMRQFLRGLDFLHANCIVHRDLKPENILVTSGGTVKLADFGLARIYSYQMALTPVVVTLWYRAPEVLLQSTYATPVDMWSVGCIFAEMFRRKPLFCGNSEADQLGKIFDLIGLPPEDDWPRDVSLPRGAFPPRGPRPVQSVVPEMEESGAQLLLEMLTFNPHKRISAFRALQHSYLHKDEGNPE
T3 sequence (P30281 whole entry partner): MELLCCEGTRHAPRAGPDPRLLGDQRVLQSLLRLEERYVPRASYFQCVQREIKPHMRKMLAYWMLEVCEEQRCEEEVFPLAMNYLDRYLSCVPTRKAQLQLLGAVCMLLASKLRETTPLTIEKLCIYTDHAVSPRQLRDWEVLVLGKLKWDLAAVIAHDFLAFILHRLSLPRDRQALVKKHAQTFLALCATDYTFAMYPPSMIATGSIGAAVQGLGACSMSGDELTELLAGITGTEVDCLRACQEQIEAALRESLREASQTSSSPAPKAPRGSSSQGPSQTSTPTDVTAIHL

With `CC(C)NC(=O)O[C@@H]1CC[C@H](c2cc(Nc3cncc(N(C)C)n3)n[nH]2)C1` [Example 2P, (1R,3S)-3-(3-((6-(dimethylamino)pyrazin-2-yl)amino)-1H-pyrazol-5-yl)cyclopentyl isopropylcarbamate], the Ki in experiment [1] came out at 0.033 µM; in experiment [2] (Table O) it was 0.0042 µM; in experiment [2] (Table Q), 0.0042 µM; in experiment [3], 0.18 µM. Also, the “improvement in potency against CDK2 (Ki) over Comparator C” value (“improvement … (Ki) over Comparator C” for short) in experiment [2] stood at 8 fold. Moreover, the “FS CDK1/CDK2” value in experiment [2] (setting [6]) is on record as 7.9; in experiment [2] (Table Q, enzymatic) it was 7.9. Moreover, the “FS CDK4/CDK2” value in experiment [2] (setting [7]) came out at 43; in experiment [2] (Table Q, enzymatic) it was 43. Further, the “increased fold-selectivity CDK4/CDK2 over Comparator C” value (shortened to “increased fold-selectivity CDK4/CDK2”) in experiment [2] (Table Q) is “(+) (The (+) sign in Table Q signifies desirable increased fold-selectivity of the exemplary compounds over Comparator C)”. Also, the IC50 came out at 0.37 µM in experiment [4] (Table O); 5.3 µM in experiment [5] (SK-OV-3, Table O); 5.3 µM in experiment [5] (SK-OV-3, Table Q). Further, the “FS SKOV-3/OVISE” value in experiment [4] (setting [8]) came to 14; in experiment [4] (Table Q, cellular) it was 14. In addition, in experiment [4] (Table Q), the “increased fold-selectivity SKOV-3/OVISE over Comparator C” value (“increased fold-selectivity SKOV-3/OVISE” below) was “(+) (The (+) sign in Table Q signifies desirable increased fold-selectivity of the exemplary compounds over Comparator C)”. Further, in experiment [4] (Table Q), the “improvement in CDK2 OVISE cell potency over Comparator C” value worked out at 14.9 fold.
Take `CC(C)NC(=O)O[C@@H]1CC[C@H](c2cc(Nc3ncnc(N(C)C)n3)n[nH]2)C1` [Example 2Q, (1R,3S)-3-(3-((4-(dimethylamino)-1,3,5-triazin-2-yl)amino)-1H-pyrazol-5-yl)cyclopentyl isopropylcarbamate]: the Ki was determined as 0.67 µM in experiment [1], 0.041 µM in experiment [2] (Table O), 0.041 µM in experiment [2] (Table Q) and 1.5 µM in experiment [3]. Besides, the “FS CDK1/CDK2” value amounted to 16 in experiment [2] (setting [6]) and 16 in experiment [2] (Table Q, enzymatic). Moreover, the “FS CDK4/CDK2” value was 37 in experiment [2] (setting [7]) and 37 in experiment [2] (Table Q, enzymatic). In addition, the “increased fold-selectivity CDK4/CDK2” value in experiment [2] (Table Q) is listed as “(+) (The (+) sign in Table Q signifies desirable increased fold-selectivity of the exemplary compounds over Comparator C)”. In addition, the “improvement … (Ki) over Comparator C” value in experiment [2] (setting [9]) is given as 0.8 fold. Also, the IC50 is 2.4 µM in experiment [4] (Table O); > 20 µM in experiment [5] (SK-OV-3, Table O); > 20 µM in experiment [5] (SK-OV-3, Table Q). In addition, the “FS SKOV-3/OVISE” value in experiment [4] (setting [8]) is reported as >8.3; in experiment [4] (Table Q, cellular) it was > 8.3. For the same molecule, the “increased fold-selectivity SKOV-3/OVISE” value in experiment [4] (Table Q) is recorded as “(+) (The (+) sign in Table Q signifies desirable increased fold-selectivity of the exemplary compounds over Comparator C)”. Besides, the “improvement in CDK2 OVISE cell potency over Comparator C” value in experiment [4] (Table Q) is 2.3 fold.
For `Cc1cc(=O)n(C)cc1Nc1cc([C@H]2CC[C@@H](OC(=O)NC(C)C)C2)[nH]n1` [Example 2S, (1R,3S)-3-(3-((1,4-dimethyl-6-oxo-1,6-dihydropyridin-3-yl)amino)-1H-pyrazol-5-yl)cyclopentyl isopropylcarbamate], the Ki came to 7.4 µM in experiment [1], 0.89 µM in experiment [2] (Table O), 0.89 µM in experiment [2] (Table Q) and 12 µM in experiment [3]. Besides, the “FS CDK1/CDK2” value amounted to 8.3 in experiment [2] (setting [6]) and 8.3 in experiment [2] (Table Q, enzymatic). In addition, the “FS CDK4/CDK2” value in experiment [2] (setting [7]) came out at 13; in experiment [2] (Table Q, enzymatic) it was 13. Also, the “increased fold-selectivity CDK4/CDK2” value in experiment [2] (Table Q) is listed as “(+) (The (+) sign in Table Q signifies desirable increased fold-selectivity of the exemplary compounds over Comparator C)”. The “improvement … (Ki) over Comparator C” value in experiment [2] (setting [9]) is listed as 0.4 fold. The IC50 in experiment [4] (Table O) was > 20 µM; in experiment [4] (Table Q) it was > 20 µM; in experiment [5] (SK-OV-3, Table O), > 20 µM; in experiment [5] (SK-OV-3, Table Q), > 20 µM. Moreover, the “FS SKOV-3/OVISE” value turned out to be 1.0 in experiment [4] (setting [8]) and 1.0 in experiment [4] (Table Q, cellular). In addition, the “improvement in CDK2 OVISE cell potency over Comparator C” value in experiment [4] (Table Q) is 0.28 fold.
With `Cc1ncncc1Nc1cc([C@H]2CC[C@@H](OC(=O)NC(C)C)C2)[nH]n1` [Example 2U, (1R,3S)-3-(3-((4-methylpyrimidin-5-yl)amino)-1H-pyrazol-5-yl)cyclopentyl isopropylcarbamate], the Ki in experiment [1] worked out at 0.56 µM; in experiment [2] (Table O), 0.015 µM; in experiment [2] (Table Q) it was 0.015 µM; in experiment [3], 1.8 µM. Further, the “improvement … (Ki) over Comparator C” value in experiment [2] is on record as 2 fold. The “FS CDK1/CDK2” value was determined as 37 in experiment [2] (setting [6]) and 37 in experiment [2] (Table Q, enzymatic). For the same molecule, the “FS CDK4/CDK2” value in experiment [2] (setting [7]) worked out at 120; in experiment [2] (Table Q, enzymatic) it was 120. For the same molecule, the “increased fold-selectivity CDK4/CDK2” value in experiment [2] (Table Q) was “(+) (The (+) sign in Table Q signifies desirable increased fold-selectivity of the exemplary compounds over Comparator C)”. Besides, the IC50 in experiment [4] (Table O) is 0.4 µM; in experiment [5] (SK-OV-3, Table O) it was > 20 µM; in experiment [5] (SK-OV-3, Table Q), > 20 µM. Moreover, the “FS SKOV-3/OVISE” value in experiment [4] (setting [8]) is >50; in experiment [4] (Table Q, cellular) it was > 50. Besides, in experiment [4] (Table Q), the “increased fold-selectivity SKOV-3/OVISE” value was “(+) (The (+) sign in Table Q signifies desirable increased fold-selectivity of the exemplary compounds over Comparator C)”. The “improvement in CDK2 OVISE cell potency over Comparator C” value in experiment [4] (Table Q) worked out at 13.8 fold.
For the molecule `Cc1ncc(Nc2cc([C@H]3CC[C@@H](OC(=O)NC(C)C)C3)[nH]n2)c(C)n1` [Example 2W, (1R,3S)-3-(3-((2,4-dimethylpyrimidin-5-yl)amino)-1H-pyrazol-5-y1)cyclopentyl isopropylcarbamate], the Ki in experiment [1] was 1.1 µM; in experiment [2] (Table O), 0.042 µM; in experiment [2] (Table Q), 0.042 µM; in experiment [3], 3.1 µM. Moreover, the “improvement … (Ki) over Comparator C” value in experiment [2] is 0.8 fold. Also, the “FS CDK1/CDK2” value came out at 26 in experiment [2] (setting [6]) and 26 in experiment [2] (Table Q, enzymatic). Further, the “FS CDK4/CDK2” value in experiment [2] (setting [7]) stood at 74; in experiment [2] (Table Q, enzymatic), 74. Also, in experiment [2] (Table Q), the “increased fold-selectivity CDK4/CDK2” value is on record as “(+) (The (+) sign in Table Q signifies desirable increased fold-selectivity of the exemplary compounds over Comparator C)”. The IC50 is 2.7 µM in experiment [4] (Table O); > 20 µM in experiment [5] (SK-OV-3, Table O); > 20 µM in experiment [5] (SK-OV-3, Table Q). Moreover, the “FS SKOV-3/OVISE” value is >7.4 in experiment [4] (setting [8]) and > 7.4 in experiment [4] (Table Q, cellular). The “increased fold-selectivity SKOV-3/OVISE” value in experiment [4] (Table Q) is given as “(+) (The (+) sign in Table Q signifies desirable increased fold-selectivity of the exemplary compounds over Comparator C)”. In addition, the “improvement in CDK2 OVISE cell potency over Comparator C” value in experiment [4] (Table Q) is listed as 2 fold.
